Measured values reported in the supplement of paper PMC10307832.

What was measured:
Assay in all cases: relative viability (nuclei count vs DMSO), 5 days (fraction); higher = more cells survive
NCI-H522 = tested on: NCI-H522
Summary of the method: (§1)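 Five library-drug doses in √10 steps were combined with a fixed anchor-drug dose, or a single drug was given alone, by pin tool to lung cancer cell lines in 1536-well plates the day after seeding. Nuclei were stained and counted after 5 days. Relative viability is the nuclei count in treated wells over that in vehicle wells, taken as the median of duplicate plates.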

NCI-H1651 = tested on: NCI-H1651
Summary of the method: as §1

NCI-H838 = tested on: NCI-H838
Summary of the method: as §1

LCLC-97TM1 = tested on: LCLC-97TM1
Summary of the method: as §1

NCI-H1793 = tested on: NCI-H1793
Summary of the method: as §1

HARA = tested on: HARA
Summary of the method: as §1

201T = tested on: 201T
Summary of the method: as §1

NCI-H2405 = tested on: NCI-H2405
Summary of the method: as §1

A-427 = tested on: A-427
Summary of the method: as §1

NCI-H2347 = tested on: NCI-H2347
Summary of the method: as §1

RERF-LC-KJ = tested on: RERF-LC-KJ
Summary of the method: as §1

NCI-H1650 = tested on: NCI-H1650
Summary of the method: as §1

LOU-NH91 = tested on: LOU-NH91
Summary of the method: as §1

PC-3 [JPC-3] = tested on: PC-3 [JPC-3]
Summary of the method: as §1

HCC-78 = tested on: HCC-78
Summary of the method: as §1

LK-2 = tested on: LK-2
Summary of the method: as §1

NCI-H23 = tested on: NCI-H23
Summary of the method: as §1

UMC-11 = tested on: UMC-11
Summary of the method: as §1

COR-L23 = tested on: COR-L23
Summary of the method: as §1

NCI-H520 = tested on: NCI-H520
Summary of the method: as §1

LCLC-103H = tested on: LCLC-103H
Summary of the method: as §1

LXF-289 = tested on: LXF-289
Summary of the method: as §1

NCI-H647 = tested on: NCI-H647
Summary of the method: as §1

`CCNC(=O)c1noc(-c2cc(C(C)C)c(O)cc2O)c1-c1ccc(CN2CCOCC2)cc1` [Luminespib] + CC(=O)c1c(C)c2cnc(Nc3ccc(N4CCNCC4)cn3)nc2n(C2CCCC2)c1=O [Palbociclib] (partner 0.5 µM) showed a relative viability (NCI-H522; first compound 0.002 µM) of 0.848, a relative viability (NCI-H522; first compound 0.006325 µM) of 0.937 and a relative viability (NCI-H522; first compound 0.02 µM) of 0.764. The relative viability (NCI-H522; first compound 0.06325 µM) was 0.861, the relative viability (NCI-H522; first compound 0.2 µM) was 0.411 and the relative viability (NCI-H1651; first compound 0.002 µM) was 0.544. For the same molecule, the relative viability (NCI-H1651; first compound 0.006325 µM) was 0.521, the relative viability (NCI-H1651; first compound 0.02 µM) was 0.408 and the relative viability (NCI-H1651; first compound 0.06325 µM) was 0.423. It also gave a relative viability (NCI-H1651; first compound 0.2 µM) of 0.332, a relative viability (NCI-H838; first compound 0.002 µM) of 0.233 and a relative viability (NCI-H838; first compound 0.006325 µM) of 0.252. The relative viability (NCI-H838; first compound 0.02 µM) was 0.16, the relative viability (NCI-H838; first compound 0.06325 µM) was 0.14 and the relative viability (NCI-H838; first compound 0.2 µM) was 0.105. It also gave a relative viability (LCLC-97TM1; first compound 0.002 µM) of 0.214, a relative viability (LCLC-97TM1; first compound 0.006325 µM) of 0.227 and a relative viability (LCLC-97TM1; first compound 0.06325 µM) of 0.248. For the same molecule, the relative viability (LCLC-97TM1; first compound 0.2 µM) was 0.205, the relative viability (NCI-H1793; first compound 0.002 µM) was 0.306 and the relative viability (NCI-H1793; first compound 0.006325 µM) was 0.334. For the same molecule, the relative viability (NCI-H1793; first compound 0.02 µM) was 0.211, the relative viability (NCI-H1793; first compound 0.06325 µM) was 0.151 and the relative viability (NCI-H1793; first compound 0.2 µM) was 0.165. It also gave a relative viability (HARA; first compound 0.002 µM) of 0.221, a relative viability (HARA; first compound 0.006325 µM) of 0.221 and a relative viability (HARA; first compound 0.02 µM) of 0.213. The relative viability (HARA; first compound 0.06325 µM) was 0.253, the relative viability (HARA; first compound 0.2 µM) was 0.11 and the relative viability (201T; first compound 0.002 µM) was 0.363. It also gave a relative viability (201T; first compound 0.006325 µM) of 0.366, a relative viability (201T; first compound 0.02 µM) of 0.309 and a relative viability (201T; first compound 0.06325 µM) of 0.352. For the same molecule, the relative viability (201T; first compound 0.2 µM) was 0.356, the relative viability (NCI-H2405; first compound 0.002 µM) was 0.557 and the relative viability (NCI-H2405; first compound 0.02 µM) was 0.417. The relative viability (NCI-H2405; first compound 0.06325 µM) was 0.172, the relative viability (NCI-H2405; first compound 0.2 µM) was 0.164 and the relative viability (A-427; first compound 0.002 µM) was 0.516. For the same molecule, the relative viability (A-427; first compound 0.006325 µM) was 0.488, the relative viability (A-427; first compound 0.02 µM) was 0.503 and the relative viability (A-427; first compound 0.06325 µM) was 0.467. The relative viability (A-427; first compound 0.2 µM) was 0.258, the relative viability (NCI-H2347; first compound 0.002 µM) was 0.37 and the relative viability (NCI-H2347; first compound 0.006325 µM) was 0.408. It also gave a relative viability (NCI-H2347; first compound 0.02 µM) of 0.38, a relative viability (NCI-H2347; first compound 0.06325 µM) of 0.384 and a relative viability (NCI-H2347; first compound 0.2 µM) of 0.301. For the same molecule, the relative viability (RERF-LC-KJ; first compound 0.002 µM) was 1.04, the relative viability (RERF-LC-KJ; first compound 0.006325 µM) was 1.01 and the relative viability (RERF-LC-KJ; first compound 0.02 µM) was 1.02. For the same molecule, the relative viability (RERF-LC-KJ; first compound 0.06325 µM) was 0.269, the relative viability (RERF-LC-KJ; first compound 0.2 µM) was 0.227 and the relative viability (NCI-H1650; first compound 0.002 µM) was 0.305. The relative viability (NCI-H1650; first compound 0.006325 µM) was 0.302, the relative viability (NCI-H1650; first compound 0.02 µM) was 0.168 and the relative viability (NCI-H1650; first compound 0.06325 µM) was 0.106. It also gave a relative viability (NCI-H1650; first compound 0.2 µM) of 0.127, a relative viability (LOU-NH91; first compound 0.002 µM) of 0.557 and a relative viability (LOU-NH91; first compound 0.006325 µM) of 0.533. It also gave a relative viability (LOU-NH91; first compound 0.02 µM) of 0.503, a relative viability (LOU-NH91; first compound 0.06325 µM) of 0.375 and a relative viability (LOU-NH91; first compound 0.2 µM) of 0.354. It also gave a relative viability (PC-3 [JPC-3]; first compound 0.002 µM) of 0.558, a relative viability (PC-3 [JPC-3]; first compound 0.006325 µM) of 0.544 and a relative viability (PC-3 [JPC-3]; first compound 0.02 µM) of 0.518. The relative viability (PC-3 [JPC-3]; first compound 0.06325 µM) was 0.473, the relative viability (PC-3 [JPC-3]; first compound 0.2 µM) was 0.436 and the relative viability (HCC-78; first compound 0.002 µM) was 0.461. The relative viability (HCC-78; first compound 0.02 µM) was 0.467, the relative viability (HCC-78; first compound 0.06325 µM) was 0.51 and the relative viability (HCC-78; first compound 0.2 µM) was 0.427. The relative viability (LK-2; first compound 0.002 µM) was 0.679, the relative viability (LK-2; first compound 0.006325 µM) was 0.563 and the relative viability (LK-2; first compound 0.02 µM) was 0.351. The relative viability (LK-2; first compound 0.06325 µM) was 0.0849, the relative viability (LK-2; first compound 0.2 µM) was 0.0745 and the relative viability (NCI-H23; first compound 0.002 µM) was 0.567. The relative viability (NCI-H23; first compound 0.006325 µM) was 0.582, the relative viability (NCI-H23; first compound 0.02 µM) was 0.376 and the relative viability (NCI-H23; first compound 0.06325 µM) was 0.154. For the same molecule, the relative viability (NCI-H23; first compound 0.2 µM) was 0.14, the relative viability (UMC-11; first compound 0.002 µM) was 0.32 and the relative viability (UMC-11; first compound 0.006325 µM) was 0.303. For the same molecule, the relative viability (UMC-11; first compound 0.02 µM) was 0.296, the relative viability (UMC-11; first compound 0.06325 µM) was 0.273 and the relative viability (UMC-11; first compound 0.2 µM) was 0.2. It also gave a relative viability (COR-L23; first compound 0.002 µM) of 0.343, a relative viability (COR-L23; first compound 0.006325 µM) of 0.274 and a relative viability (COR-L23; first compound 0.02 µM) of 0.26. The relative viability (COR-L23; first compound 0.06325 µM) was 0.0657, the relative viability (COR-L23; first compound 0.2 µM) was 0.071 and the relative viability (NCI-H520; first compound 0.002 µM) was 0.301. For the same molecule, the relative viability (NCI-H520; first compound 0.006325 µM) was 0.213, the relative viability (NCI-H520; first compound 0.02 µM) was 0.176 and the relative viability (NCI-H520; first compound 0.06325 µM) was 0.121. For the same molecule, the relative viability (NCI-H520; first compound 0.2 µM) was 0.135, the relative viability (LCLC-103H; first compound 0.002 µM) was 0.481 and the relative viability (LCLC-103H; first compound 0.006325 µM) was 0.454. For the same molecule, the relative viability (LCLC-103H; first compound 0.02 µM) was 0.447, the relative viability (LCLC-103H; first compound 0.06325 µM) was 0.469 and the relative viability (LCLC-103H; first compound 0.2 µM) was 0.468. The relative viability (LXF-289; first compound 0.002 µM) was 0.582, the relative viability (LXF-289; first compound 0.006325 µM) was 0.569 and the relative viability (LXF-289; first compound 0.02 µM) was 0.601. It also gave a relative viability (LXF-289; first compound 0.06325 µM) of 0.574, a relative viability (LXF-289; first compound 0.2 µM) of 0.535 and a relative viability (NCI-H647; first compound 0.002 µM) of 0.442. For the same molecule, the relative viability (NCI-H647; first compound 0.006325 µM) was 0.396, the relative viability (NCI-H647; first compound 0.02 µM) was 0.207 and the relative viability (NCI-H647; first compound 0.06325 µM) was 0.0721. For the same molecule, the relative viability (NCI-H647; first compound 0.2 µM) was 0.0558.
